# Measured values published in paper PMC4183650 (Journal of the American Chemical Society, 2014).
# Key:
# [1] = both D-Ala-D-Ala and D-Ala-D-Lac ligands; cited from earlier work
# VanA VRE = settings: clinically resistant phenotypes (VanA and VanB); cited from earlier work
# [2] = system: panel of Gram-positive bacteria (VSSA, MRSA, VanA and VanB VRE); test: In vitro antimicrobial assay, panel summary in text; type: cell-based, S. aureus, E. faecalis, E. faecium
substance,measurement,setting,value
[Ψ[C(=NH)NH]Tpg^4]vancomycin aglycon [compound 9],binding affinity for both target ligands relative to vancomycin aglycon for D-Ala-D-Ala,[1],≤ 2 fold
Vancomycin [compound 1],loss in antimicrobial activity in resistant phenotypes,VanA VRE,1000 fold
[Ψ[C(=NH)NH]Tpg^4]vancomycin [compound 3],MIC against VanA resistant bacteria,[2]; VanA resistant bacteria,0.5 µg/mL
[Ψ[C(=S)NH]Tpg^4]vancomycin [compound 2],MIC against all vancomycin sensitive and resistant strains,"[2]; whole panel: VSSA, MRSA, VanA and VanB VRE",> 32 µg/mL
